Tested on: MBT-2 tumors
Experiment: Anti-tumoral activity in MBT-2 syngeneic ectotopic (subcutaneous) tumor model
Assay type: in vivo, mouse
Set-up: key to Statistical significance for tumor growth versus Anti-PD-1: p value < 0.05*; ns: Ns: non significant
Procedure: The aim of this study is to determine the anti-tumoral activity of ABX196 or of anti-PD-1 antibody, administered systemically alone, in MBT2 syngeneic ectotopic models and in particular, to evaluate the capacity of these agents to treat established sub-cutaneous tumors.
Anti-PD-1 antibody (ref.: BE0146, BioXcell; clone: RMP1-14, reactivity: mouse; isotype: Rat IgG2a; storage conditions: +4° C.). Anti-PD-1 antibody is prepared in phosphate buffered saline (PBS) or other suitable vehicle according to manufacturer's recommendation. The anti-PD-1 antibody is administered at the dose of 10 mg/kg. Anti-PD-1 antibody is injected into the peritoneal cavity of mice (Intraperitoneally, IP). Anti-PD-1 antibody is administered at a dose volume of 10 mL/kg/adm.
ABX196 is provided as a solution at […] and is administered at the dose of 100 ng per mouse. ABX196 is injected by the intravenous route in the caudal vein of mice (IV, bolus). ABX196 is administered at a fixed dose volume of 100 μL (i.e. approximately 5 mL/kg/adm. for one mouse weighing 20 g).
Tumor cells are grown as monolayer at 37° C. in a humidified atmosphere (5% CO2, 95% air). The culture medium is RPMI 1640 containing 2 mM L-glutamine (ref: BE12-702F, Lonza, Verviers, Belgium) supplemented with 10% fetal bovine serum (ref: 3302, Lonza). Tumor cells are adherent to plastic flasks. For experimental use, tumor cells are detached from the culture flask by a 5-minutes treatment with trypsin-versene (ref: BE02-007E, Lonza), in Hanks' medium without calcium or magnesium (ref: BE10-543F, Lonza) and neutralized by addition of complete culture medium.
68 (sixty-eight) healthy female C3H/HeJ (C3H/HeOuJ) mice, 6-7 weeks old, are obtained from The Jackson Laboratory (Bar Harbor, Me.) for the MBT-2 model.
MBT-2 tumors are induced by subcutaneous injection of 1×10^6 cells in 200 μL of RPMI 1640 into the right flank of the sixty-eight female animals.
The treatment starts when the tumors reach a mean volume of 80-120 mm^3 (day 13 in this experiment). The sixty-eight mice for the MBT-2 model are randomized according to their individual tumor volume into 4 groups each (one not shown) of 12 animals using Vivo Manager® software (Biosystemes, Couternon, France). A statistical test (analysis of variance, ANOVA) is performed to test for homogeneity between groups. The treatment schedule was chosen as follows:
Animals from group 1 receive an IV injection of ABX196 vehicle and an IP injection of anti-PD-1 antibody vehicle,
Animals from group 2 receive an IV injection of 100 ng of ABX196,
Animals from group 3 receive twice weekly administrations of anti-PD-1 antibody,
Tumor growth inhibition (T/C) is defined as the ratio of the median tumor volumes of treated versus control group. The optimal value is the minimal T/C ratio reflecting the maximal tumor growth inhibition achieved.

[1] = day 20, one way ANOVA, pair wise Bonferroni's multiple comparison test

CCCCCCCCCCCCCCCCCCCCCCCC(=O)N[C@@H](CO[C@H]1O[C@H](CNC(C)=O)[C@H](O)[C@H](O)[C@H]1O)[C@H](O)[C@H](O)CCCCCCCCCCCCCC [ABX196]
T/C (%) (tumor growth inhibition, ratio of median tumor volumes of treated versus control group) (C3H/HeJ mice with subcutaneous MBT-2 tumors, day 23 after tumor induction, ABX196 100 ng IV Q1Dx1, anti-PD-1 10 mg/kg IP TWx2): 54% | Statistical significance for tumor growth versus Anti-PD-1 [1]: ns | Statistical significance for tumor growth versus Vehicle [1]: * (p value < 0.05*) | Mean tumor volume in function of time after tumor induction (FIG. 1), compared with anti-PD-1 antibodies (subcutaneous MBT-2 tumors, ABX196 100 ng IV Q1Dx1): reduces more efficiently the tumor volume than anti-PD-1 antibodies | Tumor growth inhibition (FIG. 2), compared with anti-PD-1 antibodies (subcutaneous MBT-2 tumors, day 23, ABX196 100 ng IV Q1Dx1): inhibits more efficiently the tumor growth than anti-PD-1 antibodies

Reference: patent US11266667B2, “ABX196 for use in the treatment of bladder cancer” (ABIVAX, priority 2017, dated 2022)
